Measurements reported in PubChem BioAssay (NCI).
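All cell lines were grown in 96-well plates and treated with compound for 48 hours. TGI is the concentration that stops growth completely.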

Experiments:
Test in all cases: DTP human tumour cell line panel, 48 h
NCI-H23 lung = test system: NCI-H23 lung
HCT-15 colon = test system: HCT-15 colon
A498 renal = test system: A498 renal
SNB-75 CNS = test system: SNB-75 CNS
HOP-62 NSCLC = test system: HOP-62 NSCLC
K-562 leukemia = test system: K-562 leukemia
SK-MEL-2 melanoma = test system: SK-MEL-2 melanoma
SF-268 CNS = test system: SF-268 CNS
SW-620 colon = test system: SW-620 colon
SK-MEL-28 melanoma = test system: SK-MEL-28 melanoma
SR leukemia = test system: SR leukemia
TK-10 renal = test system: TK-10 renal
OVCAR-4 ovarian = test system: OVCAR-4 ovarian
OVCAR-3 ovarian = test system: OVCAR-3 ovarian
UO-31 renal = test system: UO-31 renal
PC-3 prostate = test system: PC-3 prostate
HS 578T breast = test system: HS 578T breast
NCI/ADR-RES ovarian = test system: NCI/ADR-RES ovarian
MDA-MB-435 = test system: MDA-MB-435

SMILES | TGI (NCI-H23 lung) [µM] | TGI (HCT-15 colon) [µM] | TGI (A498 renal) [µM] | TGI (SNB-75 CNS) [µM] | TGI (HOP-62 NSCLC) [µM] | TGI (K-562 leukemia) [µM] | TGI (SK-MEL-2 melanoma) [µM] | TGI (SF-268 CNS) [µM] | TGI (SW-620 colon) [µM] | TGI (SK-MEL-28 melanoma) [µM] | TGI (SR leukemia) [µM] | TGI (TK-10 renal) [µM] | TGI (OVCAR-4 ovarian) [µM] | TGI (OVCAR-3 ovarian) [µM] | TGI (UO-31 renal) [µM] | TGI (PC-3 prostate) [µM] | TGI (HS 578T breast) [µM] | TGI (NCI/ADR-RES ovarian) [µM] | TGI (MDA-MB-435) [µM]
CC(=O)c1cccc(NCn2nnc3ccccc32)c1 | > 100 | > 100 | > 100 | > 100 | > 100 | > 100 | > 100 | > 100 | > 100 | > 100 | > 100 | > 100 | > 100 | > 100 | > 100 | – | – | – | –
CC(C)(C)OC(=O)CN1CCNCCN(CC(=O)OC(C)(C)C)CC1 | – | > 100 | > 100 | 68.7 | > 100 | > 100 | > 100 | – | – | – | > 100 | > 100 | > 100 | > 100 | > 100 | > 100 | > 100 | > 100 | –
[O-]c1on[n+]2c1c(Nc1ccc(Cl)cc1)nc1ccccc12 | > 100 | – | > 100 | > 100 | – | > 100 | – | > 100 | > 100 | > 100 | > 100 | > 100 | > 100 | > 100 | > 100 | – | – | – | –
CC(Oc1ccc(OCC2CCCCC2)cc1)C(=O)N(CCO)CCO (stereo unspecified) | > 100 | > 100 | > 100 | > 100 | – | > 100 | > 100 | > 100 | – | > 100 | – | > 100 | > 100 | > 100 | > 100 | – | – | – | –
COc1ccc(C2NC3=C(CCCC3)C3(C#N)C(=O)N=C(N)C23C#N)cc1 (stereo unspecified) | > 100 | > 100 | > 100 | – | > 100 | > 100 | > 100 | > 100 | > 100 | > 100 | – | > 100 | > 100 | – | > 100 | > 100 | > 100 | > 100 | > 100
CC(CCc1ccc2c(c1)c(=N)c1ccc(N)cc1n2O)CC(C)(C)C (stereo unspecified) | – | 17.9 | 3.51 | – | 3.31 | 3.13 | 3.31 | 4.23 | 3.07 | 3.58 | 4.03 | 3.29 | – | 3.19 | 34 | – | – | – | –
CC(=O)O[C@]12CCC[C@H]1C1(O)C(O)CCC[C@H]12 (stereo partly specified) | > 100 | > 100 | – | > 100 | > 100 | > 100 | > 100 | > 100 | > 100 | > 100 | > 100 | > 100 | > 100 | – | > 100 | – | – | – | –
Cc1c2cnccc2nc2[nH]c3ccncc3c12 | 6.9 | 28.8 | 47.5 | > 100 | 18.4 | > 100 | 27.6 | 7.62 | 65.8 | > 100 | 11.5 | 24.3 | > 100 | 42.4 | 28.8 | > 100 | > 100 | – | 27.6
O=[N+]([O-])c1nccn1CC1OC(n2ccnc2[N+](=O)[O-])C(O)C(O)C1O (stereo unspecified) | > 100 | – | > 100 | > 100 | > 100 | > 100 | > 100 | – | > 100 | > 100 | > 100 | > 100 | – | – | > 100 | > 100 | > 100 | – | –
N#Cc1c2c([nH]c(=O)c1C#N)CCCC2 | > 100 | > 100 | > 100 | > 100 | – | > 100 | > 100 | > 100 | > 100 | > 100 | – | > 100 | – | > 100 | > 100 | > 100 | > 100 | > 100 | > 100
Cc1cccc(Nc2cn(CCOc3ccccc3)c(=O)n(CCOc3ccccc3)c2=O)c1 | > 100 | > 100 | > 100 | – | > 100 | > 100 | – | > 100 | > 100 | > 100 | > 100 | – | > 100 | > 100 | > 100 | > 100 | > 100 | – | > 100
CCN1C(=O)C(=Cc2ccc(-c3ccccc3)cc2)C(=O)N(CC)C1=S | > 100 | > 100 | – | > 100 | > 100 | > 100 | > 100 | > 100 | > 100 | > 100 | – | > 100 | > 100 | > 100 | > 100 | > 100 | > 100 | > 100 | > 100
C=CC12CN(C)C3C4COC(CC41)C1(C(=O)Nc4ccccc41)C32 (stereo unspecified) | > 200 | > 200 | > 200 | > 200 | > 200 | > 200 | > 200 | > 200 | > 200 | > 200 | – | – | > 200 | > 200 | > 200 | – | – | > 200 | –
CN1C(=O)C(O)CC1c1cccc(F)c1 (stereo unspecified) | > 100 | > 100 | > 100 | > 100 | > 100 | > 100 | > 100 | – | > 100 | > 100 | > 100 | – | > 100 | > 100 | > 100 | > 100 | – | > 100 | > 100
CN1CN(c2ccccc2)C2(CCN(CCCC(=O)c3cccs3)CC2)C1=O | > 100 | > 100 | – | > 100 | 37.4 | > 100 | – | > 100 | > 100 | > 100 | > 100 | 87.6 | – | > 100 | > 100 | > 100 | – | > 100 | –
CC(C)=CCC/C(C)=C/Cc1c(O)ccc2c1[nH]c1cc(O)c(C)cc12 | – | > 25 | – | – | 23.4 | > 25 | > 25 | > 25 | > 25 | > 25 | > 25 | > 25 | 12.1 | 21.2 | > 25 | – | – | – | –
CC1=CCS(=O)(=O)C1C(O)C1=C(C)CCCC1(C)C (stereo unspecified) | > 100 | > 100 | > 100 | > 100 | > 100 | > 100 | > 100 | – | > 100 | > 100 | – | > 100 | > 100 | > 100 | > 100 | > 100 | – | > 100 | > 100
Cn1c(=O)nc2n(-c3ccc(Cl)cc3Cl)c3ccccc3nc-2c1=O | 22 | 15.4 | – | – | 23.9 | 22.6 | 17.4 | 76 | – | 23.5 | > 100 | 54.2 | 15.4 | 5.59 | 26 | – | – | – | –
COC(=O)c1cc(-c2c[nH]cc2C(=O)OCc2ccccc2)cn1S(=O)(=O)c1ccc(C)cc1 | > 100 | > 100 | > 100 | > 100 | > 100 | > 100 | > 100 | > 100 | – | – | > 100 | > 100 | > 100 | > 100 | > 100 | > 100 | > 100 | > 100 | –
OC(c1ccccc1)(c1ccccc1)c1cccnc1 | > 100 | > 100 | > 100 | > 100 | > 100 | > 100 | > 100 | > 100 | > 100 | > 100 | – | > 100 | > 100 | > 100 | > 100 | – | – | – | –
O=C(CC(C(=O)c1ccsc1)c1ccccc1)c1cccs1 (stereo unspecified) | 77.3 | > 100 | > 100 | > 100 | > 100 | > 100 | – | > 100 | > 100 | > 100 | > 100 | > 100 | > 100 | > 100 | 95.7 | – | > 100 | 67.9 | > 100
Cc1ccc(NC(=O)CC(=O)n2nc(C)c(N=Nc3ccc(S(=O)(=O)CCOS(=O)(=O)O)cc3)c2C)cc1 | > 100 | – | > 100 | > 100 | > 100 | > 100 | > 100 | > 100 | > 100 | > 100 | – | > 100 | – | > 100 | > 100 | > 100 | > 100 | > 100 | > 100
O=C1C=CC(=O)c2c(O)c(N[C@@H](Cc3ccccc3)C(=O)OCc3ccccc3)c(Cl)c(O)c21 | > 10 | > 10 | > 10 | > 10 | > 10 | – | > 10 | > 10 | > 10 | > 10 | – | > 10 | > 10 | 7.15 | – | > 10 | > 10 | 5.62 | > 10
Cn1c(COC(=O)NC2CCCCC2)c(COC(=O)NC2CCCCC2)c2ccc3cc(Cl)c(Cl)cc3c21 | 40.5 | 24.7 | 25.9 | 27.8 | – | 15.7 | 28.5 | 24.5 | 32.8 | 50.2 | – | 30.6 | – | 29.9 | 66.7 | 32.9 | 23.6 | > 100 | 49.4
CCOC(=O)CN1CCSC1=NC#N | > 100 | > 100 | > 100 | > 100 | > 100 | > 100 | > 100 | > 100 | > 100 | > 100 | – | – | > 100 | > 100 | > 100 | – | – | > 100 | –
CC1CC/C(=C\c2ccc(N(C)C)cc2)C(=O)/C1=C/c1ccc(N(C)C)cc1 (stereo unspecified) | > 100 | > 100 | > 100 | > 100 | > 100 | > 100 | > 100 | – | > 100 | > 100 | > 100 | > 100 | > 100 | > 100 | > 100 | > 100 | – | > 100 | > 100
O=Cc1cc2c(o1)C(=O)c1ccccc1C2=O | 0.465 | – | 9.44 | 0.858 | 2.6 | – | 4.2 | 4.13 | 1.02 | 1.08 | 3.68 | 8.52 | 2.26 | 2.11 | 4.6 | 11.6 | – | 5.54 | –
C=C(N=[N+]=[N-])c1cn(C2CC(O)C(CO)O2)c(=O)[nH]c1=O (stereo unspecified) | > 100 | > 100 | – | > 100 | > 100 | > 100 | > 100 | – | > 100 | > 100 | > 100 | > 100 | – | > 100 | > 100 | – | – | – | –
Nc1ccc(S(=O)(=O)c2ccc(NC(=O)c3cccnc3)cc2)cc1 | > 100 | > 100 | > 100 | > 100 | > 100 | > 100 | – | > 100 | > 100 | > 100 | – | > 100 | > 100 | > 100 | > 100 | > 100 | > 100 | > 100 | > 100
O=C(Nc1ccc([N+](=O)[O-])cc1)C(=O)C(C(=O)c1ccccc1F)C1OC(=O)c2ccccc21 (stereo unspecified) | > 100 | > 100 | > 100 | 96.4 | > 100 | > 100 | 71.6 | > 100 | > 100 | > 100 | 64.7 | > 100 | > 100 | – | > 100 | – | – | – | –
